Laboratory results published in ChEMBL document CHEMBL3044953, “Effect of nitrogen insertion on the antitussive properties of menthol and camphor” (Med Chem Res, 2012).
The source made the active and inactive calls. The calls are words filed in the database; no cut-off is given here.

Assays:
Cavia porcellus [1] = organism: Cavia porcellus; test: Antitussive activity against crtric acid-induced cough in Cavia porcellus (guinea pig) model assessed as increase in cough latency at 500 ug/ml for 5 min through aerosol prior to exposure of aerosolized citric acid for 10 min; type: functional, organism-based
Cavia porcellus [2] = organism: Cavia porcellus; test: Antitussive activity against crtric acid-induced cough in Cavia porcellus (guinea pig) model assessed as cough response at 125 ug/ml for 5 min through aerosol prior to exposure of aerosolized citric acid for 10 min; type: functional, organism-based
Cavia porcellus [3] = organism: Cavia porcellus; test: Antitussive activity against crtric acid-induced cough in Cavia porcellus (guinea pig) model assessed as cough latency at 125 to 250 ug/ml for 5 min through aerosol prior to exposure of aerosolized citric acid for 10 min; type: functional, organism-based
Cavia porcellus [4] = organism: Cavia porcellus; test: Antitussive activity against crtric acid-induced cough in Cavia porcellus (guinea pig) model assessed as reduction in cough response at 250 to 500 ug/ml for 5 min through aerosol prior to exposure of aerosolized citric acid for 10 min; type: functional, organism-based
Cavia porcellus [5] = organism: Cavia porcellus; test: Antitussive activity against crtric acid-induced cough in Cavia porcellus (guinea pig) model assessed as increase in cough latency at 30 to 60 ug/ml for 5 min through aerosol prior to exposure of aerosolized citric acid for 10 min; type: functional, organism-based
Cavia porcellus [6] = organism: Cavia porcellus; test: Antitussive activity against crtric acid-induced cough in Cavia porcellus (guinea pig) model assessed as reduction in cough response at 15 to 60 ug/ml for 5 min through aerosol prior to exposure of aerosolized citric acid for 10 min; type: functional, organism-based
Cavia porcellus [7] = organism: Cavia porcellus; test: Toxicity in Cavia porcellus (guinea pig) assessed as adverse behavior at 125 to 500 ug/ml through aerosol; type: organism-based; conditions: in vivo, inhaled_or_intranasal
Cavia porcellus [8] = organism: Cavia porcellus; test: Antitussive activity against crtric acid-induced cough in Cavia porcellus (guinea pig) model assessed as increase in cough latency at 250 to 500 ug/ml for 5 min through aerosol prior to exposure of aerosolized citric acid for 10 min; type: functional, organism-based
Cavia porcellus [9] = organism: Cavia porcellus; test: Toxicity in Cavia porcellus (guinea pig) assessed as irritation at 125 to 500 ug/ml through aerosol; type: organism-based; conditions: in vivo, inhaled_or_intranasal
Cavia porcellus [10] = organism: Cavia porcellus; test: Antitussive activity against crtric acid-induced cough in Cavia porcellus (guinea pig) model assessed as reduction in cough response at 125 to 500 ug/ml for 5 min through aerosol prior to exposure of aerosolized citric acid for 10 min; type: functional, organism-based
Cavia porcellus [11] = organism: Cavia porcellus; test: Antitussive activity against crtric acid-induced cough in Cavia porcellus (guinea pig) model assessed as cough latency at 125 ug/ml for 5 min through aerosol prior to exposure of aerosolized citric acid for 10 min; type: functional, organism-based
Cavia porcellus [12] = organism: Cavia porcellus; test: Toxicity in Cavia porcellus (guinea pig) assessed as adverse behavior at 15 to 60 ug/ml through aerosol; type: organism-based; conditions: in vivo, inhaled_or_intranasal
Cavia porcellus [13] = organism: Cavia porcellus; test: Antitussive activity against crtric acid-induced cough in Cavia porcellus (guinea pig) model assessed as increase in cough latency at 15 to 60 ug/ml for 5 min through aerosol prior to exposure of aerosolized citric acid for 10 min; type: functional, organism-based
Cavia porcellus [14] = organism: Cavia porcellus; test: Toxicity in Cavia porcellus (guinea pig) assessed as irritation at 15 to 60 ug/ml through aerosol; type: organism-based; conditions: in vivo, inhaled_or_intranasal

CC12CCC(CC1=O)C2(C)C (stereo not given)
Activity (Cavia porcellus [1]): Active
inhibition (Cavia porcellus [2]): inactive
Activity (Cavia porcellus [3]): inactive
inhibition (Cavia porcellus [4]): Active

CC1CCC(C(C)C)C(O)C1 (stereo not given)
Activity (Cavia porcellus [5]): Active
inhibition (Cavia porcellus [6]): Active

CC1(C)C2CC[C@]1(C)C(=O)NC2 [Alpha-camphidone]
Activity (Cavia porcellus [7]): Non-toxic
Activity (Cavia porcellus [8]): Active
Activity (Cavia porcellus [9]): Non-toxic
inhibition (Cavia porcellus [10]): Active
Activity (Cavia porcellus [11]): inactive

CC(C)[C@@H]1CC[C@@H](C)CC(=O)N1 [Menthol lactam]
Activity (Cavia porcellus [12]): Non-toxic
Activity (Cavia porcellus [13]): Active
inhibition (Cavia porcellus [6]): Active
Activity (Cavia porcellus [14]): Non-toxic
